Assay results from patent publication US8809333B2, “Imidazole, pyrazole, and triazole derivatives useful as antibacterial agents” (Pfizer Inc., priority 2011, dated 2014).
Values after ≈ are worked out from the molar mass of the structure shown. Read-outs that look alike come from different tables or passages of the source.

What was measured:
[1] = target: T1, Pseudomonas aeruginosa LpxC enzyme (Pseudomonas aeruginosa, UniProt P47205); assay: IC50 assay, LpxC enzyme from P. aeruginosa (BioTrove RapidFire mass spectrometry); format: biochemical
T1 construct: made in house; host or cells: E. coli
T1 sequence (P47205 1-303): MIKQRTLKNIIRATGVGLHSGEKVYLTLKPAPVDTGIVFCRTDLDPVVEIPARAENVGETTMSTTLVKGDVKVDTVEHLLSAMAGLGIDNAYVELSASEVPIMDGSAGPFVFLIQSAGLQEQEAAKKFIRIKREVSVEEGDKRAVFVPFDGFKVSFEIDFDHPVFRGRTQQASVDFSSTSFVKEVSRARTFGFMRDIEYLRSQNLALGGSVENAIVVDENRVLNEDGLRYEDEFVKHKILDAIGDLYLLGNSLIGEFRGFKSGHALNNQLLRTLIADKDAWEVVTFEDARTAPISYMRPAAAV
Procedure, shortened: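 P. aeruginosa LpxC reaction run 1 hour, stopped with 1 N HCl, and substrate-to-product conversion quantified by RapidFire mass spectrometry. IC50 calculated from percent conversion using a no-enzyme control.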

[2] = tested on: Acinetobacter baumannii/haemolyticus: Multidrug-resistant clinical isolate (AB-3167); assay: MIC determination (CLSI), AB-3167; format: cell-based; conditions: Acinetobacter baumannii/haemolyticus multidrug-resistant clinical isolate; overnight incubation; lower of duplicate values; read-out: AB-3167 (MIC)
Procedure, shortened: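 Broth dilution MIC per CLSI M7-A8, 2-fold concentration steps, overnight incubation, visual read of lowest concentration inhibiting growth versus drug-free control. Tested in duplicate; lower value reported if within 2-fold, otherwise repeated; QC organisms and reference drugs required within range.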

[3] = tested on: Escherichia coli EC-1: VOGEL, mouse virulent; assay: MIC determination (CLSI), EC-1; format: cell-based; conditions: Escherichia coli, read-out: EC-1 (MIC)
Procedure, shortened: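 Broth dilution MIC per CLSI M7-A8, with 2-fold compound dilutions incubated overnight with a standard inoculum. MIC is the lowest concentration visibly inhibiting growth versus drug-free control; tested in duplicate, reporting the lower value when within 2-fold, with QC organisms and reference compounds required in range.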

[4] = tested on: Klebsiella pneumoniae: Ciprofloxacin-resistant isolate, expresses ESBL, clinical isolate (KP-3700); assay: MIC determination (CLSI), KP-3700; format: cell-based; conditions: overnight incubation, lower of duplicate values
Procedure, shortened: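 Broth dilution MIC per CLSI M7-A8 against the ciprofloxacin-resistant, ESBL-expressing clinical isolate, 2-fold concentration steps, overnight incubation, visual read of lowest growth-inhibiting concentration. Tested in duplicate; lower value reported when within 2-fold; control organisms and reference compounds required within range.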

[5] = tested on: Pseudomonas aeruginosa UI-18: Wild-type (PA-7); assay: MIC determination (CLSI), PA-7; format: cell-based; conditions: Pseudomonas aeruginosa UI-18 wild-type; overnight incubation; lower of duplicate values; read-out: PA-7 (MIC)
Procedure, shortened: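 Broth dilution MIC per CLSI M7-A8, using 2-fold compound dilutions incubated overnight; MIC is the lowest concentration with no visible growth versus the drug-free control. Run in duplicate, lower value reported when within 2-fold. Control organisms and reference compounds were included for QC.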

[6] = P. aeruginosa LpxC enzyme 0.1 nM, 25° C., 1 hour, pH 8.0, read-out: PA: IC50

Compound	IC50 [1, 6]	MIC [2]	MIC [3]	KP-3700 (MIC) [4]	MIC [5]	IC50 [1]
C[C@@](CCn1cc(-c2nc3ccccc3o2)cn1)(C(=O)NO)S(C)(=O)=O [Example 10, (2R)-4-[4-(1,3-benzoxazol-2-yl)-1H-pyrazol-1-yl]-N-hydroxy-2-methyl-2-(methylsulfonyl)butanamide]	13.8 nM	32 µg/mL (≈ 84.6 µM)	32 µg/mL (≈ 84.6 µM)	>64.0 µg/mL	32 µg/mL (≈ 84.6 µM)	–
CC(CCn1cc(-c2ccc(Cl)cn2)cn1)(C(=O)NO)S(C)(=O)=O (stereo not shown) [Example 54, 4-[4-(5-chloropyridin-2-yl)-1H-pyrazol-1-yl]-N-hydroxy-2-methyl-2-(methylsulfonyl)butanamide]	6.94 nM	> 64 µg/mL	> 64 µg/mL	>64.0 µg/mL	16 µg/mL (≈ 42.9 µM)	–
CC(CCn1cc(-c2ccc(C#N)cc2)cn1)(C(=O)NO)S(C)(=O)=O (stereo not shown) [Example 47, 4-[4-(4-cyanophenyl)-1H-pyrazol-1-yl]-N-hydroxy-2-methyl-2-(methylsulfonyl)butanamide]	1.15 nM	> 64 µg/mL	64 µg/mL (≈ 177 µM)	>64.0 µg/mL	4 µg/mL (≈ 11 µM)	–
Cc1ccc(-c2cn(CCC(C)(C(=O)NO)S(C)(=O)=O)nn2)cc1 (stereo not shown) [Example 37, N-hydroxy-2-methyl-4-[4-(4-methylphenyl)-1H-1,2,3-triazol-1-yl]-2-(methylsulfonyl)butanamide]	–	> 64 µg/mL	16 µg/mL (≈ 45.4 µM)	64 µg/mL	4 µg/mL (≈ 11.4 µM)	1.39 nM
Cc1ccc2cc(-c3cnn(CCC(C)(C(=O)NO)S(C)(=O)=O)c3)ccc2n1 (stereo not shown) [Example 67, N-hydroxy-2-methyl-4-[4-(2-methylquinolin-6-yl)-1H-pyrazol-1-yl]-2-(methylsulfonyl)butanamide]	12.1 nM	> 64 µg/mL	> 64 µg/mL	>64.0 µg/mL	32 µg/mL (≈ 79.5 µM)	–
CCc1nc2ccc(-c3cnn(CCC(C)(C(=O)NO)S(C)(=O)=O)c3)cc2s1 (stereo not shown) [Example 91, 4-[4-(2-ethyl-1,3-benzothiazol-6-yl)-1H-pyrazol-1-yl]-N-hydroxy-2-methyl-2-(methylsulfonyl)butanamide]	2.55 nM	> 64 µg/mL	32 µg/mL (≈ 75.7 µM)	>64.0 µg/mL	16 µg/mL (≈ 37.9 µM)	–
Cc1cc(-c2cnn(CCC(C)(C(=O)NO)S(C)(=O)=O)c2)ccc1F (stereo not shown) [Example 52, 4-[4-(4-fluoro-3-methylphenyl)-1H-pyrazol-1-yl]-N-hydroxy-2-methyl-2-(methylsulfonyl)butanamide]	6.93 nM	> 64 µg/mL	16 µg/mL (≈ 43.3 µM)	64 µg/mL	2 µg/mL (≈ 5.41 µM)	–
C[C@@](CCn1cc(C#N)cn1)(C(=O)NO)S(C)(=O)=O [Example 7, (2R)-4-(4-cyano-1H-pyrazol-1-yl)-N-hydroxy-2-methyl-2-(methylsulfonyl)butanamide]	620 nM	> 64 µg/mL	> 64 µg/mL	>64.0 µg/mL	> 64 µg/mL	–
C[C@@](CCn1cc(-c2cccc(F)c2F)nn1)(C(=O)NO)S(C)(=O)=O [Example 17, (2R)-4-[4-(2,3-difluorophenyl)-1H-1,2,3-triazol-1-yl]-N-hydroxy-2-methyl-2-(methylsulfonyl)butanamide]	–	> 64 µg/mL	32 µg/mL (≈ 85.5 µM)	64 µg/mL	4 µg/mL (≈ 10.7 µM)	8.08 nM
CC(CCn1cc(-c2cccc(-c3cc(N)[nH]n3)c2)cn1)(C(=O)NO)S(C)(=O)=O (stereo not shown) [Example 85, 4-{4-[3-(5-amino-1H-pyrazol-3-yl)phenyl]-1H-pyrazol-1-yl}-N-hydroxy-2-methyl-2-(methylsulfonyl)butanamide]	58.9 nM	> 64 µg/mL	> 64 µg/mL	>64.0 µg/mL	> 64 µg/mL	–
CC(CCn1cc(-c2ccc3[nH]c(C(N)=O)cc3c2)cn1)(C(=O)NO)S(C)(=O)=O (stereo not shown) [Example 87, 5-{1-[4-(hydroxyamino)-3-methyl-3-(methylsulfonyl)-4-oxobutyl]-1H-pyrazol-4-yl}-1H-indole-2-carboxamide]	63.6 nM	> 64 µg/mL	> 64 µg/mL	>64.0 µg/mL	> 64 µg/mL	–
Cc1c(-c2ccccc2)nnn1CC[C@](C)(C(=O)NO)S(C)(=O)=O [Example 15, (2R)—N-hydroxy-2-methyl-4-(5-methyl-4-phenyl-1H-1,2,3-triazol-1-yl)-2-(methylsulfonyl)butanamide]	21.3 nM	> 64 µg/mL	> 64 µg/mL	>64.0 µg/mL	32 µg/mL (≈ 90.8 µM)	–
Cc1c(F)cccc1-c1cnn(CCC(C)(C(=O)NO)S(C)(=O)=O)c1 (stereo not shown) [Example 53, 4-[4-(3-fluoro-2-methylphenyl)-1H-pyrazol-1-yl]-N-hydroxy-2-methyl-2-(methylsulfonyl)butanamide]	9.28 nM	> 64 µg/mL	32 µg/mL (≈ 86.6 µM)	>64.0 µg/mL	16 µg/mL (≈ 43.3 µM)	–
CC(CCn1cc(-c2ccc3cc(C(N)=O)[nH]c3c2)cn1)(C(=O)NO)S(C)(=O)=O (stereo not shown) [Example 86, 6-{1-[4-(hydroxyamino)-3-methyl-3-(methylsulfonyl)-4-oxobutyl]-1H-pyrazol-4-yl}-1H-indole-2-carboxamide]	14.5 nM	> 64 µg/mL	> 64 µg/mL	>64.0 µg/mL	> 64 µg/mL	–
CC(C)(C)c1ccccc1SCc1cn(CCC(C)(C(=O)NO)S(C)(=O)=O)nn1 (stereo not shown) [Example 28, 4-(4-{[(2-t-butylphenyl)sulfanyl]methyl}-1H-1,2,3-triazol-1-yl)-N-hydroxy-2-methyl-2-(methylsulfonyl)butanamide]	174 nM	> 64 µg/mL	> 64 µg/mL	>64.0 µg/mL	> 64 µg/mL	–
CC(CCn1cc(-c2ccc(F)cc2F)cn1)(C(=O)NO)S(C)(=O)=O (stereo not shown) [Example 55, 4-[4-(2,4-difluorophenyl)-1H-pyrazol-1-yl]-N-hydroxy-2-methyl-2-(methylsulfonyl)butanamide]	2.07 nM	> 64 µg/mL	8 µg/mL (≈ 21.4 µM)	64 µg/mL	2 µg/mL (≈ 5.36 µM)	–
CC(CCn1cc(CSc2ccc(Cl)cc2)nn1)(C(=O)NO)S(C)(=O)=O (stereo not shown) [Example 29, 4-(4-{[(4-chlorophenyl)sulfanyl]methyl}-1H-1,2,3-triazol-1-yl)-N-hydroxy-2-methyl-2-(methylsulfonyl)butanamide]	8.82 nM	> 64 µg/mL	> 64 µg/mL	>64.0 µg/mL	32 µg/mL (≈ 76.4 µM)	–
CC(CCn1cc(-c2ccc(C(F)(F)F)cn2)cn1)(C(=O)NO)S(C)(=O)=O (stereo not shown) [Example 76, N-hydroxy-2-methyl-2-(methylsulfonyl)-4-{4-[5-(trifluoromethyl)pyridin-2-yl]-1H-pyrazol-1-yl}butanamide]	37.3 nM	> 64 µg/mL	> 64 µg/mL	>64.0 µg/mL	64 µg/mL (≈ 157 µM)	–
C[C@@](CCn1cc(C#Cc2cccc(C#N)c2)cn1)(C(=O)NO)S(C)(=O)=O [Example 11, (2R)-4-{4-[(3-cyanophenyl)ethynyl]-1H-pyrazol-1-yl}-N-hydroxy-2-methyl-2-(methylsulfonyl)butanamide]	12.1 nM	> 64 µg/mL	32 µg/mL (≈ 82.8 µM)	64 µg/mL	16 µg/mL (≈ 41.4 µM)	–
CCOc1ccc(-c2cnn(CCC(C)(C(=O)NO)S(C)(=O)=O)c2)cc1C#N (stereo not shown) [Example 78, 4-[4-(3-cyano-4-ethoxyphenyl)-1H-pyrazol-1-yl]-N-hydroxy-2-methyl-2-(methylsulfonyl)butanamide]	21.7 nM	> 64 µg/mL	> 64 µg/mL	>64.0 µg/mL	64 µg/mL (≈ 157 µM)	–
